Results as given in US20230203043A1, “NOVEL IMIDAZOPYRAZINE DERIVATIVES” (Hoffmann-La Roche Inc., priority 2020, published 2023).
Structures can show the parent of a compound that is named as a salt.

Tested on: Acinetobacter baumannii ATCC17961
Assay: Antimicrobial susceptibility testing: 90% growth inhibitory concentration (IC90) determination in Iso-Sensitest broth, OD600 growth
Format: cell-based
Conditions: Acinetobacter baumannii, ATCC17961, 16 h, read-out: A. baumannii ATCC 17961 IC90 (uM), strain ATCC 17961, OD600 growth over 16 h
Method in brief: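 Each strain, at about 5×10^(5) CFU/ml, was incubated with twofold dilutions of compound at 35±2° C for 16 h, and IC90 was calculated from kinetic optical density measured at 600 nm during logarithmic growth.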

| Structure (SMILES) | IC90 [µM] |
| --- | --- |
| CCc1cc(Nc2nccn3c(-c4c[nH]nc4C(F)(F)F)cnc23)ccc1C(=O)NCCNC(=O)[C@@H](C)N [Example 696, (R)-N-(2-(2-aminopropanamido)ethyl)-2-ethyl-4-((3-(3-(trifluoromethyl)-1H-pyrazol-4-yl)imidazo [1,2-a]pyrazin-8-yl)amino)benzamide formate] | 0.37 |
| CCc1cc(Nc2nccn3c(-c4cn(CC#N)nc4C(F)(F)F)cnc23)ccc1C(=O)N[C@H](C)C(=O)N1CCC(N)CC1 [Example 697, N-[(1R)-2-(4-amino-1-piperidyl)-1-methyl-2-oxo-ethyl]-4-[[3-[1-(cyanomethyl)-3-(trifluoromethyl)pyrazol-4-yl]imidazo[1,2-a]pyrazin-8-yl]amino]-2-ethyl-benzamide formate] | 0.371 |
| CCc1cc(Nc2nccn3c(-c4cn(C(C)C#N)nc4C(F)(F)F)cnc23)ccc1C(=O)NCC1CC1N (centres unmarked) [Example 700, N-((2-aminocyclopropyl)methyl)-4-((3-(1-(1-cyanoethyl)-3-(trifluoromethyl)-1H-pyrazol-4-yl)imidazo[1,2-a]pyrazin-8-yl)amino)-2-ethylbenzamide formate] | 0.382 |
| CCc1cc(Nc2nccn3c(-c4cn(CC#N)nc4C(F)(F)F)cnc23)ccc1C(=O)NCCCNC(=O)CCN [Example 702, N-(3-(3-aminopropanamido)propyl)-4-((3-(1-(cyanomethyl)-3-(trifluoromethyl)-1H-pyrazol-4-yl)imidazo[1,2-a]pyrazin-8-yl)amino)-2-ethylbenzamide formate] | 0.383 |
| Cc1cc(Nc2nccn3c(-c4cn(CC#N)nc4C(F)(F)F)cnc23)cc(F)c1C(=O)N1CCN(C(=O)C2CCNCC2)CC1 [Example 703, 2-(4-(8-((3-fluoro-5-methyl-4-(4-(piperidine-4-carbonyl)piperazine-1-carbonyl)phenyl)amino)imidazo[1,2-a]pyrazin-3-yl)-3-(trifluoromethyl)-1H-pyrazol-1-yl)acetonitrile formate] | 0.383 |
| N#CCn1cc(-c2cnc3c(Nc4ccc(C(=O)NCC(=O)N5CC(N)C5)c(Cl)c4)nccn23)c(C(F)(F)F)n1 [Example 713, N-[2-(3-aminoazetidin-1-yl)-2-oxo-ethyl]-2-chloro-4-[[3-[1-(cyanomethyl)-3-(trifluoromethyl)pyrazol-4-yl]imidazo[1,2-a]pyrazin-8-yl]amino]benzamide formate] | 0.417 |
| CCc1cc(Nc2nccn3c(-c4cn(CC#N)nc4C(F)(F)F)cnc23)ccc1C(=O)NCC(=O)N1CC(N)C1 [Example 716, N-[2-(3-aminoazetidin-1-yl)-2-oxo-ethyl]-4-[[3-[1-(cyanomethyl)-3-(trifluoromethyl)pyrazol-4-yl]imidazo[1,2-a]pyrazin-8-yl]amino]-2-ethyl-benzamide formate] | 0.426 |
| CCc1cc(Nc2nccn3c(-c4cn(CC(F)F)nc4C(F)(F)F)cnc23)ccc1C(=O)NCCOCCN1CCOCC1 [Example 717, 4-((3-(1-(2,2-difluoroethyl)-3-(trifluoromethyl)-1H-pyrazol-4-yl)imidazo[1,2-a]pyrazin-8-yl)amino)-2-ethyl-N-(2-(2-morpholinoethoxy)ethyl)benzamide formate] | 0.434 |
| CCc1cc(Nc2nccn3c(-c4c[nH]nc4C(F)(F)F)cnc23)ccc1C(=O)NCCNC(=O)[C@H](C)N [Example 718, (S)-N-(2-(2-aminopropanamido)ethyl)-2-ethyl-4-((3-(3-(trifluoromethyl)-1H-pyrazol-4-yl)imidazo [1,2-a]pyrazin-8-yl)amino)benzamide formate] | 0.435 |

Same assay, conditions: Acinetobacter baumannii, ATCC17961, 16 h, strain ATCC 17961, OD600 growth over 16 h, read-out: A. baumannii ATCC 17961 IC90

| IC90 [µM] | Structure (SMILES) |
| --- | --- |
| 0.397 | CCc1cc(Nc2nccn3c(-c4c[nH]nc4C(F)(F)F)cnc23)ccc1C(=O)NCCCNC(=O)CNC(=O)C(F)(F)F [Example 708, 2-ethyl-N-(3-(2-(2,2,2-trifluoroacetamido)acetamido)propyl)-4-((3-(3-(trifluoromethyl)-1H-pyrazol-4-yl)imidazo [1,2-a]pyrazin-8-yl)amino)benzamide] |
| 0.408 | C[C@@H](NC(=O)c1ccc(Nc2nccn3c(-c4cn(CC#N)nc4C(F)(F)F)cnc23)cc1Cl)C(=O)N[C@H]1CCNC1 [Example 710, 2-chloro-4-[[3-[1-(cyanomethyl)-3-(trifluoromethyl)pyrazol-4-yl]imidazo[1,2-a]pyrazin-8-yl]amino]-N-[(1R)-1-methyl-2-oxo-2-[[(3S)-pyrrolidin-3-yl]amino]ethyl] benzamide formate] |
| 0.409 | CCc1cc(Nc2nccn3c(-c4cn(CC(F)F)nc4C(F)(F)F)cnc23)ccc1C(=O)NCC(=O)N1CC[C@H](N)C1 [Example 711, N-[2-[(3S)-3-aminopyrrolidin-1-yl]-2-oxo-ethyl]-4-[[3-[1-(2,2-difluoroethyl)-3-(trifluoromethyl)pyrazol-4-yl]imidazo[1,2-a]pyrazin-8-yl]amino]-2-ethyl-benzamide] |
| 0.41 | CCc1cc(Nc2nccn3c(-c4cn(CC#N)nc4C(F)(F)F)cnc23)ccc1C(=O)N[C@H](C)CNC(=O)[C@@H]1C[C@@H](O)CN1 [Example 712, (2S,4R)-N-((R)-2-(4-((3-(1-(cyanomethyl)-3-(trifluoromethyl)-1H-pyrazol-4-yl)imidazo[1,2-a]pyrazin-8-yl)amino)-2-ethylbenzamido)propyl)-4-hydroxypyrrolidine-2-carboxamide] |
| 0.422 | Cc1cc(Nc2nccn3c(-c4cn(CCF)nc4C(F)(F)F)cnc23)cc(F)c1C(=O)N1CCN(C(=O)[C@H]2CC[C@H](O)N2)CC1 [Example 714, (4-(2-fluoro-4-((3-(1-(2-fluoroethyl)-3-(trifluoromethyl)-1H-pyrazol-4-yl)imidazo[1,2-a]pyrazin-8-yl)amino)-6-methylbenzoyl)piperazin-1-yl)((2R,5S)-5-hydroxypyrrolidin-2-yl)methanone] |
| 0.422 | Cc1cc(Nc2nccn3c(-c4cn(CC#N)nc4C(F)(F)F)cnc23)cc(F)c1C(=O)N1CCN(C(=O)[C@H]2CC[C@H](O)N2)CC1 [Example 715, 2-(4-(8-((3-fluoro-4-(4-((2R,5S)-5-hydroxypyrrolidine-2-carbonyl)piperazine-1-carbonyl)-5-methylphenyl)amino)imidazo[1,2-a]pyrazin-3-yl)-3-(trifluoromethyl)-1H-pyrazol-1-yl) acetonitrile] |

Further lines, the molecule ahead of its results:

| Structure (SMILES) | IC90 [µM] |
| --- | --- |
| Cc1cc(Nc2nccn3c(-c4cn(CC(F)F)nc4C(F)(F)F)cnc23)cc(F)c1C(=O)N1CCN(C(=O)[C@@H]2C[C@@H](O)CN2)CC1 [Example 698, (4-(4-((3-(1-(2,2-difluoroethyl)-3-(trifluoromethyl)-1H-pyrazol-4-yl)imidazo[1,2-a]pyrazin-8-yl)amino)-2-fluoro-6-methylbenzoyl)piperazin-1-yl)((2S,4R)-4-hydroxypyrrolidin-2-yl)methanone] | 0.374 |
| Cc1cc(Nc2nccn3c(-c4cn(CC#N)nc4C(F)(F)F)cnc23)cc(F)c1C(=O)N1CCN(C(=O)[C@H]2C[C@@H](N)C2)CC1 [Example 699, 2-(4-(8-((4-(4-((1s,3s)-3-aminocyclobutane-1-carbonyl)piperazine-1-carbonyl)-3-fluoro-5-methylphenyl)amino)imidazo[1,2-a]pyrazin-3-yl)-3-(trifluoromethyl)-1H-pyrazol-1-yl) acetonitrile formate] | 0.38 |
| Cc1cc(Nc2nccn3c(-c4cn(CC(F)F)nc4C(F)(F)F)cnc23)cc(F)c1C(=O)N1CCN(C(=O)[C@H]2C[C@@H](N)C2)CC1 [Example 701, (4-((1s,3s)-3-aminocyclobutane-1-carbonyl)piperazin-1-yl)(4-((3-(1-(2,2-difluoroethyl)-3-(trifluoromethyl)-1H-pyrazol-4-yl)imidazo[1,2-a]pyrazin-8-yl)amino)-2-fluoro-6-methylphenyl)methanone] | 0.382 |
| Cc1cc(Nc2nccn3c(-c4cn(CC(F)F)nc4C(F)(F)F)cnc23)cc(F)c1C(=O)N[C@H](C)CN [Example 704, (R)-N-(1-aminopropan-2-yl)-4-((3-(1-(2,2-difluoroethyl)-3-(trifluoromethyl)-1H-pyrazol-4-yl)imidazo[1,2-a]pyrazin-8-yl)amino)-2-fluoro-6-methylbenzamide] | 0.386 |
| Cc1cc(Nc2nccn3c(-c4cn(CC(F)F)nc4C(F)(F)F)cnc23)cc(F)c1C(=O)N[C@H](C)CNC(=O)C1CCNCC1 [Example 705, (R)-N-(2-(4-((3-(1-(2,2-difluoroethyl)-3-(trifluoromethyl)-1H-pyrazol-4-yl)imidazo[1,2-a]pyrazin-8-yl)amino)-2-fluoro-6-methylbenzamido)propyl)piperidine-4-carboxamide] | 0.391 |
| Cc1cc(Nc2nccn3c(-c4cn(CC#N)nc4C(F)(F)F)cnc23)ccc1C(=O)NCC(=O)N1CCNCC1 [Example 706, 4-[[3-[1-(cyanomethyl)-3-(trifluoromethyl)pyrazol-4-yl]imidazo[1,2-a]pyrazin-8-yl]amino]-2-methyl-N-(2-oxo-2-piperazin-1-yl-ethyl) benzamide formate] | 0.394 |
| Cc1cc(Nc2nccn3c(-c4cn(CC(F)F)nc4C(F)(F)F)cnc23)cc(F)c1C(=O)N1CCN(C(=O)C2CCNCC2)CC1 [Example 707, (4-(4-((3-(1-(2,2-difluoroethyl)-3-(trifluoromethyl)-1H-pyrazol-4-yl)imidazo[1,2-a]pyrazin-8-yl)amino)-2-fluoro-6-methylbenzoyl)piperazin-1-yl)(piperidin-4-yl) methanone] | 0.395 |

Same assay, conditions: strain ATCC 17961, OD600 growth over 16 h, read-out: A. baumannii ATCC 17961 IC90

| IC90 [µM] | Structure (SMILES) |
| --- | --- |
| 0.404 | Cc1cc(Nc2nccn3c(-c4cn(CC#N)nc4C(F)(F)F)cnc23)cc(F)c1C(=O)N[C@H](C)CNC(=O)[C@H]1C[C@@H](N)C1 [Example 709, N-((R)-1-((1s,3S)-3-aminocyclobutane-1-carboxamido)propan-2-yl)-4-((3-(1-(cyanomethyl)-3-(trifluoromethyl)-1H-pyrazol-4-yl)imidazo[1,2-a]pyrazin-8-yl)amino)-2-fluoro-6-methylbenzamide formate] |
